# Data taken from the NIST ThermoML archive (doi:10.1016/j.jct.2005.04.010).
# ± gives the expanded uncertainty stated by the source.
# Test: activity coefficient (dimensionless); of the first substance listed, at infinite dilution; xn = mol fraction of the nth substance listed
# Conditions: Liquid, x1 = 0
Compound,"activity coefficient (303.15 K, Chromatography)","activity coefficient (313.15 K, Chromatography)","activity coefficient (323.15 K, Chromatography)","activity coefficient (333.15 K, Chromatography)","activity coefficient (303.15 K, dilutor)","activity coefficient (313.15 K, dilutor)","activity coefficient (323.15 K, dilutor)","activity coefficient (333.15 K, dilutor)"
"Cc1ccccc1C [1,2-dimethylbenzene] + CCCCCCCCn1cc[n+](C)c1.O=S(=O)([N-]S(=O)(=O)C(F)(F)F)C(F)(F)F",0.98 ± 0.03,1.03 ± 0.03,1.03 ± 0.03,1.05 ± 0.03,–,–,–,–
"Cc1cccc(C)c1 [1,3-dimethylbenzene] + CCCCCCCCn1cc[n+](C)c1.O=S(=O)([N-]S(=O)(=O)C(F)(F)F)C(F)(F)F",1.13 ± 0.03,1.15 ± 0.04,1.17 ± 0.04,1.19 ± 0.04,–,–,–,–
"Cc1cccc(C)c1 [1,3-dimethylbenzene] + CCCCCC[n+]1ccn(C)c1.O=S(=O)([N-]S(=O)(=O)C(F)(F)F)C(F)(F)F",1.4 ± 0.05,1.41 ± 0.05,1.46 ± 0.06,1.5 ± 0.06,–,–,–,–
"Cc1ccc(C)cc1 [1,4-dimethylbenzene] + CCCCCCCCn1cc[n+](C)c1.O=S(=O)([N-]S(=O)(=O)C(F)(F)F)C(F)(F)F",1.11 ± 0.03,1.13 ± 0.03,1.16 ± 0.04,1.16 ± 0.04,–,–,–,–
"Cc1ccc(C)cc1 [1,4-dimethylbenzene] + CCCCCC[n+]1ccn(C)c1.O=S(=O)([N-]S(=O)(=O)C(F)(F)F)C(F)(F)F",1.42 ± 0.05,1.42 ± 0.05,1.48 ± 0.06,1.51 ± 0.06,–,–,–,–
C=CCCCCC [1-heptene] + CCCCCCCCn1cc[n+](C)c1.O=S(=O)([N-]S(=O)(=O)C(F)(F)F)C(F)(F)F,4.29 ± 0.2,4.23 ± 0.19,4.13 ± 0.19,4.13 ± 0.19,4.33 ± 0.22,4.26 ± 0.21,4.2 ± 0.21,4.15 ± 0.21
C=CCCCCC [1-heptene] + CCCCCC[n+]1ccn(C)c1.O=S(=O)([N-]S(=O)(=O)C(F)(F)F)C(F)(F)F,6.46 ± 0.3,6.28 ± 0.29,6.09 ± 0.28,5.96 ± 0.27,6.28 ± 0.31,6.12 ± 0.31,5.96 ± 0.3,5.86 ± 0.29
C=CCCCCC [1-heptene] + CCCC[N+]1(C)CCCC1.O=S(=O)([N-]S(=O)(=O)C(F)(F)F)C(F)(F)F,–,–,–,–,10.4 ± 0.5,9.97 ± 0.5,9.69 ± 0.48,9.37 ± 0.47
C=CCCC [1-pentene] + CCCCCCCCn1cc[n+](C)c1.O=S(=O)([N-]S(=O)(=O)C(F)(F)F)C(F)(F)F,2.52 ± 0.11,2.53 ± 0.11,2.46 ± 0.11,2.45 ± 0.11,2.54 ± 0.13,2.53 ± 0.13,2.53 ± 0.13,2.52 ± 0.13
C=CCCC [1-pentene] + CCCCCC[n+]1ccn(C)c1.O=S(=O)([N-]S(=O)(=O)C(F)(F)F)C(F)(F)F,3.47 ± 0.16,3.4 ± 0.15,3.3 ± 0.15,3.31 ± 0.15,3.36 ± 0.17,3.33 ± 0.17,3.3 ± 0.17,3.23 ± 0.16
C=CCCC [1-pentene] + CCCC[N+]1(C)CCCC1.O=S(=O)([N-]S(=O)(=O)C(F)(F)F)C(F)(F)F,–,–,–,–,4.95 ± 0.25,4.91 ± 0.25,4.81 ± 0.24,4.8 ± 0.24
CCOC(C)(C)C [2-ethoxy-2-methylpropane] + CCCCCC[n+]1ccn(C)c1.O=S(=O)([N-]S(=O)(=O)C(F)(F)F)C(F)(F)F,2.69 ± 0.12,2.74 ± 0.12,2.76 ± 0.13,2.82 ± 0.13,–,–,–,–
CCC(C)(C)OC [2-methoxy-2-methylbutane] + CCCCCC[n+]1ccn(C)c1.O=S(=O)([N-]S(=O)(=O)C(F)(F)F)C(F)(F)F,1.83 ± 0.08,1.9 ± 0.08,1.94 ± 0.09,2.02 ± 0.09,–,–,–,–
CC(C)=O [acetone] + CCCCCC[n+]1ccn(C)c1.O=S(=O)([N-]S(=O)(=O)C(F)(F)F)C(F)(F)F,–,–,–,–,0.31 ± 0.02,0.32 ± 0.02,0.34 ± 0.02,0.34 ± 0.02
c1ccccc1 [benzene] + CCCCCCCCn1cc[n+](C)c1.O=S(=O)([N-]S(=O)(=O)C(F)(F)F)C(F)(F)F,0.63 ± 0.03,0.65 ± 0.03,0.65 ± 0.03,0.66 ± 0.03,–,–,–,–
c1ccccc1 [benzene] + CCCCCC[n+]1ccn(C)c1.O=S(=O)([N-]S(=O)(=O)C(F)(F)F)C(F)(F)F,0.75 ± 0.03,0.76 ± 0.03,0.78 ± 0.03,0.79 ± 0.03,–,–,–,–
c1ccccc1 [benzene] + CCCC[N+]1(C)CCCC1.O=S(=O)([N-]S(=O)(=O)C(F)(F)F)C(F)(F)F,–,–,–,–,0.84 ± 0.04,0.86 ± 0.04,0.88 ± 0.04,0.89 ± 0.04

Compound,"activity coefficient (303.15 K, Chromatography)","activity coefficient (313.15 K, Chromatography)","activity coefficient (323.15 K, Chromatography)","activity coefficient (333.15 K, Chromatography)","activity coefficient (303.15 K, dilutor)","activity coefficient (313.15 K, dilutor)","activity coefficient (323.15 K, dilutor)","activity coefficient (333.15 K, dilutor)"
CCC(C)=O [butanone] + CCCCCC[n+]1ccn(C)c1.O=S(=O)([N-]S(=O)(=O)C(F)(F)F)C(F)(F)F,0.41 ± 0.03,0.42 ± 0.03,0.44 ± 0.03,0.44 ± 0.03,–,–,–,–
CCC(C)=O [butanone] + CCCC[N+]1(C)CCCC1.O=S(=O)([N-]S(=O)(=O)C(F)(F)F)C(F)(F)F,–,–,–,–,0.52 ± 0.03,0.53 ± 0.03,0.55 ± 0.03,0.56 ± 0.03
C1CCCCC1 [cyclohexane] + CCCCCCCCn1cc[n+](C)c1.O=S(=O)([N-]S(=O)(=O)C(F)(F)F)C(F)(F)F,3.64 ± 0.17,3.52 ± 0.16,3.36 ± 0.15,3.29 ± 0.15,3.67 ± 0.18,3.59 ± 0.18,3.48 ± 0.17,3.39 ± 0.17
C1CCCCC1 [cyclohexane] + CCCCCC[n+]1ccn(C)c1.O=S(=O)([N-]S(=O)(=O)C(F)(F)F)C(F)(F)F,5.48 ± 0.25,5.15 ± 0.24,4.9 ± 0.22,4.75 ± 0.22,5.29 ± 0.26,5.01 ± 0.25,4.78 ± 0.24,4.68 ± 0.23
C1CCCCC1 [cyclohexane] + CCCC[N+]1(C)CCCC1.O=S(=O)([N-]S(=O)(=O)C(F)(F)F)C(F)(F)F,–,–,–,–,8.75 ± 0.44,8.43 ± 0.42,7.91 ± 0.4,7.42 ± 0.37
C1=CCCCC1 [cyclohexene] + CCCCCCCCn1cc[n+](C)c1.O=S(=O)([N-]S(=O)(=O)C(F)(F)F)C(F)(F)F,2.41 ± 0.11,2.38 ± 0.11,2.31 ± 0.1,2.29 ± 0.1,2.44 ± 0.12,2.38 ± 0.12,2.33 ± 0.12,2.28 ± 0.11
C1=CCCCC1 [cyclohexene] + CCCCCC[n+]1ccn(C)c1.O=S(=O)([N-]S(=O)(=O)C(F)(F)F)C(F)(F)F,3.42 ± 0.16,3.28 ± 0.15,3.18 ± 0.14,3.14 ± 0.14,3.2 ± 0.16,3.15 ± 0.16,3.07 ± 0.15,3.01 ± 0.15
C1CCCC1 [cyclopentane] + CCCCCCCCn1cc[n+](C)c1.O=S(=O)([N-]S(=O)(=O)C(F)(F)F)C(F)(F)F,–,–,–,–,2.68 ± 0.13,2.64 ± 0.13,2.59 ± 0.13,2.56 ± 0.13
C1CCCC1 [cyclopentane] + CCCCCC[n+]1ccn(C)c1.O=S(=O)([N-]S(=O)(=O)C(F)(F)F)C(F)(F)F,–,–,–,–,3.64 ± 0.18,3.48 ± 0.17,3.27 ± 0.16,3.26 ± 0.16
C1CCCC1 [cyclopentane] + CCCC[N+]1(C)CCCC1.O=S(=O)([N-]S(=O)(=O)C(F)(F)F)C(F)(F)F,–,–,–,–,6.14 ± 0.31,5.7 ± 0.29,5.41 ± 0.27,5.12 ± 0.26
C1=CCCC1 [cyclopentene] + CCCCCCCCn1cc[n+](C)c1.O=S(=O)([N-]S(=O)(=O)C(F)(F)F)C(F)(F)F,–,–,–,–,1.86 ± 0.09,1.84 ± 0.09,1.81 ± 0.09,1.78 ± 0.09
CC(C)OC(C)C [diisopropyl ether] + CCCCCC[n+]1ccn(C)c1.O=S(=O)([N-]S(=O)(=O)C(F)(F)F)C(F)(F)F,2.76 ± 0.13,2.82 ± 0.13,2.85 ± 0.13,2.92 ± 0.13,–,–,–,–
CCO [ethanol] + CCCCCCCCn1cc[n+](C)c1.O=S(=O)([N-]S(=O)(=O)C(F)(F)F)C(F)(F)F,1.46 ± 0.06,1.34 ± 0.05,1.22 ± 0.04,1.12 ± 0.03,–,–,–,–
CCO [ethanol] + CCCCCC[n+]1ccn(C)c1.O=S(=O)([N-]S(=O)(=O)C(F)(F)F)C(F)(F)F,1.6 ± 0.06,1.47 ± 0.06,1.36 ± 0.05,1.27 ± 0.04,–,–,–,–
CCO [ethanol] + CCCC[N+]1(C)CCCC1.O=S(=O)([N-]S(=O)(=O)C(F)(F)F)C(F)(F)F,–,–,–,–,1.84 ± 0.09,1.73 ± 0.09,1.63 ± 0.08,1.5 ± 0.08
CCCCCCC [heptane] + CCCCCCCCn1cc[n+](C)c1.O=S(=O)([N-]S(=O)(=O)C(F)(F)F)C(F)(F)F,6.82 ± 0.31,6.55 ± 0.3,6.38 ± 0.29,6.21 ± 0.28,7.01 ± 0.35,6.81 ± 0.34,6.57 ± 0.33,6.4 ± 0.32
CCCCCCC [heptane] + CCCCCC[n+]1ccn(C)c1.O=S(=O)([N-]S(=O)(=O)C(F)(F)F)C(F)(F)F,11.2 ± 0.5,10.6 ± 0.5,10 ± 0.5,9.67 ± 0.44,11 ± 0.6,10.6 ± 0.5,10.1 ± 0.5,9.77 ± 0.49
